Patent US20250333383A1, “N-OXIDE COMPOUNDS AND USE THEREOF” (SK BIOPHARMACEUTICALS CO., LTD., priority 2022, published 2025)

target: T1, human Nav1.7 channels (Homo sapiens, UniProt Q15858); test: hNav1.7 channel assay, whole cell patch clamp, two-pulse protocol; format: cell-based; details: TP2 (inactivated phase inhibition), HEK293 cells stably expressing human Nav1.7, read-out: Inhibition activity: percent inhibition on the inactivated state of hNav1.7
T1 construct: host or cells: HEK293
Text: Whole cell patch clamp technique was used to investigate the inhibitory effects of the compound of Examples on human Nav1.7 channels, stably expressed in HEK293 cells. Human Nav1.7 recombinant cell line (CYL3011-precisION) was purchased from Eurofins.
Two-pulse protocol was used every 10 seconds to assess the state-dependent inhibition by Examples. From the holding potential of −90 mV, pre-pulse (200 ms at −120 mV) was followed by test pulse1 ([…]), then test pulse2 (TP2: 20 ms at 0 mV) was evoked after inter-pulse (20 ms at −100 mV).
Peak current amplitudes were measured for test pulses TP1 (resting phase inhibition) and TP2 (inactivated phase inhibition). The following solutions were used for screening assay: External (mM): 145 NaCl, 1 MgCl2, 1.8 CaCl2, 10 Hepes, 5 Glucose, pH 7.4, 300 mOsm; Internal (mM): 120 CsF, 10 NaCl, 10 EGTA, 10 HEPES, pH 7.2, 290 mOsm.
The inhibition on the inactivated state of hNav1.7 was calculated as: % inhibition (inactivation state)=(1−(ITP2, TA/ITP2, Control)×100%, where ITP2 (the inward peak Na+ currents), Control and ITP2, TA were elicited by the TP2 in control (vehicle only) and in the presence of a test article (TA) indicating Examples, respectively.

T1 sequence (Q15858 whole entry): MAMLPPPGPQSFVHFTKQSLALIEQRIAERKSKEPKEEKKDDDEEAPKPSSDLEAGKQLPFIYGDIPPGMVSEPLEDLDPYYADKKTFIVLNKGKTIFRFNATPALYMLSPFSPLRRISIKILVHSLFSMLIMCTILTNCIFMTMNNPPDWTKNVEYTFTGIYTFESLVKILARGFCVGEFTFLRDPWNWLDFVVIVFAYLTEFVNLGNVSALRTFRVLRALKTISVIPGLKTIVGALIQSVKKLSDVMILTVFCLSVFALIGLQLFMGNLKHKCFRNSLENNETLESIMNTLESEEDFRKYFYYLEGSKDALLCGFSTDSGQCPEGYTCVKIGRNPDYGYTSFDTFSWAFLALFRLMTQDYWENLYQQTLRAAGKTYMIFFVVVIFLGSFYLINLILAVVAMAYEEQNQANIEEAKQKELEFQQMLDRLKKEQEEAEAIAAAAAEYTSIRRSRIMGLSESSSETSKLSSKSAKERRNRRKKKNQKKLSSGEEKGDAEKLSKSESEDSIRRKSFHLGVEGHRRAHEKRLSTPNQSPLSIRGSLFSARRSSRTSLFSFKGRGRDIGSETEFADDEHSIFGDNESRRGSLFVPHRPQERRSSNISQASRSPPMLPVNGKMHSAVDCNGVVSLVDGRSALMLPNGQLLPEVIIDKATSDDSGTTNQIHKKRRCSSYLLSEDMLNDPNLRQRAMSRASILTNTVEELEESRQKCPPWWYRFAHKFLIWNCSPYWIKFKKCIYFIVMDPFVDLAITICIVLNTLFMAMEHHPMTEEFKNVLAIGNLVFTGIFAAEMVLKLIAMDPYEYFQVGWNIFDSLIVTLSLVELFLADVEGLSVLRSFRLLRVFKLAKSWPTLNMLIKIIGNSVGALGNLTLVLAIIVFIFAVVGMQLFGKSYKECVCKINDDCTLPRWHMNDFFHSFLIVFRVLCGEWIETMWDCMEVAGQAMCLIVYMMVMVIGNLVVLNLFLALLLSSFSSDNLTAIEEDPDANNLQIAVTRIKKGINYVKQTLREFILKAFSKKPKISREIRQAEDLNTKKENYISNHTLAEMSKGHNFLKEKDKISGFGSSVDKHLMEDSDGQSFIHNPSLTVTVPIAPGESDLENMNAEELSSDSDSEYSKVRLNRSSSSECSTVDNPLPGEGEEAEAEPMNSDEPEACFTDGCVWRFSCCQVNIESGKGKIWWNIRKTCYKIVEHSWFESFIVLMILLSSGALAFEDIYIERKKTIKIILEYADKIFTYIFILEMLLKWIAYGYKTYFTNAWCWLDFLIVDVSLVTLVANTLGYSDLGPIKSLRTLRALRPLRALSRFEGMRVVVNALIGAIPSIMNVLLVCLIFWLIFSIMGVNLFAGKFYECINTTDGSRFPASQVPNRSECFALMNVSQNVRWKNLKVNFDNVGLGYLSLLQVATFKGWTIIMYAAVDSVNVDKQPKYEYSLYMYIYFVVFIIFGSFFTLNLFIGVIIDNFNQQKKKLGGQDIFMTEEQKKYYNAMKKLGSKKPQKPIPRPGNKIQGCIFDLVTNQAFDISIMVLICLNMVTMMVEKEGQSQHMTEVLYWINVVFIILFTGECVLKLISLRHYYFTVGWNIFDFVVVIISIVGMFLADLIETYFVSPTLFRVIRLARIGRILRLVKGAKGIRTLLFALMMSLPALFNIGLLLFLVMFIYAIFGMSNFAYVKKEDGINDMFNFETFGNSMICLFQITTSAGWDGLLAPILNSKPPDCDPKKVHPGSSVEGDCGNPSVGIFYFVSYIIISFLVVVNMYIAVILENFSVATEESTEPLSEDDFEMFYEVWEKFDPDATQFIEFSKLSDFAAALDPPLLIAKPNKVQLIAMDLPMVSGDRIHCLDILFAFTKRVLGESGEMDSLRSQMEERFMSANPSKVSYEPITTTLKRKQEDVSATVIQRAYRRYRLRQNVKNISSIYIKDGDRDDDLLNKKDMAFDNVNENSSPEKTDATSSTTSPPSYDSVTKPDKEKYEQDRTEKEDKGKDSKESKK

Row | inhibition at 10 µM [%] | Compound
1 | 10 to 40 | CC(C)c1ccc(-c2cccc(C(=O)NCc3cccc[n+]3[O-])c2)cc1 [Example 24, 3-(4-isopropylphenyl)-N-[(1-oxidopyridin-1-ium-2-yl)methyl]benzamide]
2 | 70 to 100 | O=C(NCc1cccc[n+]1[O-])c1cccc(-c2ccccc2F)c1 [Example 25, 3-(2-fluorophenyl)-N-[(1-oxidopyridin-1-ium-2-yl)methyl]benzamide]
3 | 10 to 40 | COc1cc(Cl)ccc1-c1cccc(C(=O)NCc2cccc[n+]2[O-])c1 [Example 26, 3-(4-chloro-2-methoxy-phenyl)-N-[(1-oxidopyridin-1-ium-2-yl)methyl]benzamide]
4 | 70 to 100 | Cc1cc(-c2cccc(C(=O)NCc3cccc[n+]3[O-])c2)ccc1Cl [Example 28, 3-(4-chloro-3-methyl-phenyl)-N-[(1-oxidopyridin-1-ium-2-yl)methyl]benzamide]
5 | 70 to 100 | O=C(NCc1cccc[n+]1[O-])c1cccc(-c2cc(F)cc(Cl)c2)c1 [Example 29, 3-(3-chloro-5-fluoro-phenyl)-N-[(1-oxidopyridin-1-ium-2-yl)methyl]benzamide]
6 | 40 to 70 | O=C(NCc1cccc[n+]1[O-])c1cccc(-c2ccc(Cl)c(F)c2)c1 [Example 30, 3-(4-chloro-3-fluoro-phenyl)-N-[(1-oxidopyridin-1-ium-2-yl)methyl]benzamide]
7 | 40 to 70 | O=C(NCc1cccc[n+]1[O-])c1cccc(-c2ccc(F)cc2F)c1 [Example 31, 3-(2,4-difluorophenyl)-N-[(1-oxidopyridin-1-ium-2-yl)methyl]benzamide]
8 | 70 to 100 | O=C(NCc1cccc[n+]1[O-])c1cccc(-c2cc(F)cc(F)c2)c1 [Example 32, 3-(3,5-difluorophenyl)-N-[(1-oxidopyridin-1-ium-2-yl)methyl]benzamide]
9 | 10 to 40 | O=C(NCc1cccc[n+]1[O-])c1cccc(-c2cc(F)c(F)c(F)c2)c1 [Example 33, N-[(1-oxidopyridin-1-ium-2-yl)methyl]-3-(3,4,5-trifluorophenyl)benzamide]
10 | 10 to 40 | O=C(NCc1cccc[n+]1[O-])c1cccc(-c2cccc(F)c2F)c1 [Example 34, 3-(2,3-difluorophenyl)-N-[(1-oxidopyridin-1-ium-2-yl)methyl]benzamide]
11 | 70 to 100 | CC(C)c1cccc(-c2cccc(C(=O)NCc3cccc[n+]3[O-])c2)c1 [Example 35, 3-(3-isopropylphenyl)-N-[(1-oxidopyridin-1-ium-2-yl)methyl]benzamide]
12 | 40 to 70 | O=C(NCc1cccc[n+]1[O-])c1cccc(-c2ccc(C3CC3)cc2)c1 [Example 36, 3-(4-cyclopropylphenyl)-N-[(1-oxidopyridin-1-ium-2-yl)methyl]benzamide]
13 | 40 to 70 | Cc1cc(C(F)(F)F)ccc1-c1cccc(C(=O)NCc2cccc[n+]2[O-])c1 [Example 38, 3-[2-methyl-4-(trifluoromethyl)phenyl]-N-[(1-oxidopyridin-1-ium-2-yl)methyl]benzamide]

The remaining lines, values behind:

Row | Compound | inhibition at 10 µM [%]
14 | O=C(NCc1cccc[n+]1[O-])c1cccc(-c2ccc(C(F)(F)F)cc2)c1 [Example 1, N-[(1-oxidopyridin-1-ium-2-yl)methyl]-3-[4-(trifluoromethyl)phenyl]benzamide] | 70 to 100
15 | O=C(NCc1cccc[n+]1[O-])c1cccc(-c2cccc(Cl)c2)c1 [Example 4, 3-(3-chlorophenyl)-N-[(1-oxidopyridin-1-ium-2-yl)methyl]benzamide] | 40 to 70
16 | O=C(NCc1cccc[n+]1[O-])c1cccc(-c2cccc(C(F)(F)F)c2)c1 [Example 5, N-[(1-oxidopyridin-1-ium-2-yl)methyl]-3-[3-(trifluoromethyl)phenyl]benzamide] | 40 to 70
17 | O=C(NCc1cccc[n+]1[O-])c1cccc(-c2ccc(Cl)c(Cl)c2)c1 [Example 6, 3-(3,4-dichlorophenyl)-N-[(1-oxidopyridin-1-ium-2-yl)methyl]benzamide] | 70 to 100
18 | O=C(NCc1cccc[n+]1[O-])c1cccc(-c2cc(Cl)cc(Cl)c2)c1 [Example 7, 3-(3,5-dichlorophenyl)-N-[(1-oxidopyridin-1-ium-2-yl)methyl]benzamide] | 40 to 70
19 | O=C(NCc1cccc[n+]1[O-])c1cccc(-c2cccc(OC(F)(F)F)c2)c1 [Example 8, N-[(1-oxidopyridin-1-ium-2-yl)methyl]-3-[3-(trifluoromethoxy)phenyl]benzamide] | 40 to 70
20 | O=C(NCc1cccc[n+]1[O-])c1cccc(-c2ccc(Cl)cc2Cl)c1 [Example 9, 3-(2,4-dichlorophenyl)-N-[(1-oxidopyridin-1-ium-2-yl)methyl]benzamide] | 70 to 100
21 | O=C(NCc1cccc[n+]1[O-])c1cccc(-c2cc(Cl)ccc2Cl)c1 [Example 10, 3-(2,5-dichlorophenyl)-N-[(1-oxidopyridin-1-ium-2-yl)methyl]benzamide] | 40 to 70
22 | O=C(NCc1cccc[n+]1[O-])c1cccc(-c2ccc(C(F)(F)F)cc2C(F)(F)F)c1 [Example 11, 3-[2,4-bis(trifluoromethyl)phenyl]-N-[(1-oxidopyridin-1-ium-2-yl)methyl]benzamide] | 70 to 100
23 | O=C(NCc1cccc[n+]1[O-])c1cccc(-c2ccccc2)c1 [Example 12, N-[(1-oxidopyridin-1-ium-2-yl)methyl]-3-phenyl-benzamide] | 40 to 70
24 | CC(C)(C)c1ccc(-c2cccc(C(=O)NCc3cccc[n+]3[O-])c2)cc1 [Example 13, 3-(4-tert-butylphenyl)-N-[(1-oxidopyridin-1-ium-2-yl)methyl]benzamide] | 40 to 70
25 | Cc1cc(Cl)ccc1-c1cccc(C(=O)NCc2cccc[n+]2[O-])c1 [Example 15, 3-(4-chloro-2-methyl-phenyl)-N-[(1-oxidopyridin-1-ium-2-yl)methyl]benzamide] | 40 to 70
26 | O=C(NCc1cccc[n+]1[O-])c1cccc(-c2ccc(C(F)(F)F)cc2F)c1 [Example 16, 3-[2-fluoro-4-(trifluoromethyl)phenyl]-N-[(1-oxidopyridin-1-ium-2-yl)methyl]benzamide] | 40 to 70
27 | O=C(NCc1cccc[n+]1[O-])c1cccc(-c2ccc(F)c(Cl)c2)c1 [Example 17, 3-(3-chloro-4-fluoro-phenyl)-N-[(1-oxidopyridin-1-ium-2-yl)methyl]benzamide] | 40 to 70
28 | O=C(NCc1cccc[n+]1[O-])c1cccc(-c2ccc(F)cc2)c1 [Example 18, 3-(4-fluorophenyl)-N-[(1-oxidopyridin-1-ium-2-yl)methyl]benzamide] | 40 to 70
29 | O=C(NCc1cccc[n+]1[O-])c1cccc(-c2ccccc2Cl)c1 [Example 20, 3-(2-chlorophenyl)-N-[(1-oxidopyridin-1-ium-2-yl)methyl]benzamide] | 40 to 70
30 | O=C(NCc1cccc[n+]1[O-])c1cccc(-c2ccccc2C(F)(F)F)c1 [Example 21, N-[(1-oxidopyridin-1-ium-2-yl)methyl]-3-[2-(trifluoromethyl)phenyl]benzamide] | 40 to 70
31 | Cc1cccc(-c2cccc(C(=O)NCc3cccc[n+]3[O-])c2)c1 [Example 23, 3-(m-tolyl)-N-[(1-oxidopyridin-1-ium-2-yl)methyl]benzamide] | 40 to 70
